Source: ChEMBL document CHEMBL4340507, “Identification of an indol-based multi-target kinase inhibitor through phenotype screening and target fishing using inverse virtual screening approach” (Eur J Med Chem, 2019)
Active and inactive are the calls of the source. No cut-off for these calls is given here.

How the values were obtained:
IEC-6 [1] = experiment: Induction of apoptosis in rat IEC-6 cells assessed as increase in hypodiploid nuclei at 0.1 to 0.6 uM measured after 24 hrs by propidium iodide staining-based FACS analysis; format: cell-based; conditions: iec-6, 24 h
IEC-6 [2] = experiment: Cell cycle arrest in rat IEC-6 cells assessed as accumulation at G0/G1-phase at 0.1 to 0.6 uM after 24 hrs by propidium iodide staining-based FACS analysis; format: ADME; conditions: iec-6, 24 h
HeLa [3] = experiment: Cell cycle arrest in human HeLa cells assessed as accumulation at G0/G1-phase at 0.1 to 0.6 uM after 24 hrs by propidium iodide staining-based FACS analysis; format: functional
HeLa [4] = experiment: Down regulation of ERK expression in human HeLa cells at 0.1 to 0.6 uM after 24 hrs by FACS analysis; format: functional, cell-based
IEC-6 [5] = experiment: Cell cycle arrest in rat IEC-6 cells assessed as increase in accumulation at S phase at 0.1 to 0.6 uM after 24 hrs by propidium iodide staining based FACS analysis; format: ADME; conditions: iec-6, 24 h
[6] = target: BDNF/NT-3 growth factors receptor (Homo sapiens, UniProt Q16620); experiment: Inhibition of recombinant human N-terminal GST-His6-fused TRKB C-terminal domain (V526 to G838 residues) expressed in Sf9 insect cells using Poly(Glu:Tyr)4:1 as substrate measured after 60 mins in presence of [gamma-33P]-ATP by scintillation counting method
[7] = target: Epidermal growth factor receptor (Homo sapiens, UniProt P00533); experiment: Inhibition of recombinant human wild-type N-terminal GST-His6-fused EGFR C-terminal domain (H672 to A1210) expressed in Sf9 insect cells using Poly(Glu:Tyr)4:1 as substrate measured after 60 mins in presence of [gamma-33P]-ATP by scintillation counting method
[8] = target: Dual specificity mitogen-activated protein kinase kinase 1 (Homo sapiens, UniProt Q02750); experiment: Inhibition of recombinant human wild-type full-length MEK1 (M1 to V393 residues) expressed in Sf9 insect cells using ERK2-K54R as substrate measured after 60 mins in presence of [gamma-33P]-ATP by scintillation counting method
Focal adhesion kinase 1 = Focal adhesion kinase 1 (Homo sapiens, UniProt Q05397); experiment: Inhibition of recombinant human N-terminal GST-fused FAK (2 to 1052 residues) expressed in Sf9 insect cells using Poly(Glu/Tyr)4:1 as substrate measured after 60 mins in presence of [gamma-33P]-ATP by scintillation counting method
[9] = target: 3-phosphoinositide-dependent protein kinase 1 (Homo sapiens, UniProt O15530); experiment: Inhibition of recombinant human N-terminal His6-fused PDK1 (M1 to M460 residues) expressed in Sf9 insect cells using tetra(LRRWSLG) peptide as substrate measured after 60 mins in presence of [gamma-33P]-ATP by scintillation counting method
[10] = target: Fibroblast growth factor receptor 4 (Homo sapiens, UniProt P22455); experiment: Inhibition of recombinant human N-terminal GST-His6-fused FGFR4 (R391 to T802 residues) expressed in baculovirus infected Sf9 cells using Poly(Glu:Tyr)4:1 as substrate measured after 60 mins in presence of [gamma-33P]-ATP by scintillation counting method
HeLa [11] = experiment: Antiproliferative activity against human HeLa cells assessed as decrease in cell viability measured after 72 hrs by MTT assay; format: functional, cell-based
[12] = target: RAC-beta serine/threonine-protein kinase (Homo sapiens, UniProt P31751); experiment: Inhibition of recombinant human full-length N-terminal GST-His6-fused AKT2 (M1 to E481 residues) expressed in Sf9 insect cells using GSK3-derived peptide as substrate measured after 60 mins in presence of [gamma-33P]-ATP by scintillation counting method
RAC-beta serine/threonine-protein kinase, sequence (P31751 whole entry, the tested form may be a part): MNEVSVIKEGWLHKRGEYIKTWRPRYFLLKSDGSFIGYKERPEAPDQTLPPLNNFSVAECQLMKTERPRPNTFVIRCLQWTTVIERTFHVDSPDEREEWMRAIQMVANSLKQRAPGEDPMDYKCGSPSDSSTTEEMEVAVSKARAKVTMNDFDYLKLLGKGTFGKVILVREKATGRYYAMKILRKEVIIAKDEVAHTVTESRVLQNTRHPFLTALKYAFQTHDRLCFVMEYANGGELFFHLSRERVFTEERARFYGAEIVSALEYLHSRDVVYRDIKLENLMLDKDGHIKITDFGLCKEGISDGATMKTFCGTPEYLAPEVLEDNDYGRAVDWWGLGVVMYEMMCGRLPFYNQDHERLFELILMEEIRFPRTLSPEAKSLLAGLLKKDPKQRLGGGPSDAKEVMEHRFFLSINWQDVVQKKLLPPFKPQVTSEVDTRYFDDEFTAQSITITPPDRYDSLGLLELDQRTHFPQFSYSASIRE

3-phosphoinositide-dependent protein kinase 1, sequence (O15530 whole entry, the tested form may be a part): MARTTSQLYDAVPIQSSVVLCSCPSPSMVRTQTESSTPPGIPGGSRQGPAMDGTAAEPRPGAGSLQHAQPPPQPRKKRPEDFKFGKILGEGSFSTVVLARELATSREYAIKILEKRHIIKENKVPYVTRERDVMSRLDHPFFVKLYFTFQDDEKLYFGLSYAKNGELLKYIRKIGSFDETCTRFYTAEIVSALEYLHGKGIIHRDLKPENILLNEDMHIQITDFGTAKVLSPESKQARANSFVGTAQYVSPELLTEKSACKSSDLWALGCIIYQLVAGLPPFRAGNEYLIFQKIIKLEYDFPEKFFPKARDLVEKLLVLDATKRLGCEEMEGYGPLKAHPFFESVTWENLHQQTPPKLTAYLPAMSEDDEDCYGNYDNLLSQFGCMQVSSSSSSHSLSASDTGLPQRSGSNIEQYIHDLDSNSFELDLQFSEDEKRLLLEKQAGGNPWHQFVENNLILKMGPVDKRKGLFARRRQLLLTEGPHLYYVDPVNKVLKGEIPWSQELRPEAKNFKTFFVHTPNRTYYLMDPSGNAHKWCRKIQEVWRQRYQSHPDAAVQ
Fibroblast growth factor receptor 4, sequence (P22455 whole entry, the tested form may be a part): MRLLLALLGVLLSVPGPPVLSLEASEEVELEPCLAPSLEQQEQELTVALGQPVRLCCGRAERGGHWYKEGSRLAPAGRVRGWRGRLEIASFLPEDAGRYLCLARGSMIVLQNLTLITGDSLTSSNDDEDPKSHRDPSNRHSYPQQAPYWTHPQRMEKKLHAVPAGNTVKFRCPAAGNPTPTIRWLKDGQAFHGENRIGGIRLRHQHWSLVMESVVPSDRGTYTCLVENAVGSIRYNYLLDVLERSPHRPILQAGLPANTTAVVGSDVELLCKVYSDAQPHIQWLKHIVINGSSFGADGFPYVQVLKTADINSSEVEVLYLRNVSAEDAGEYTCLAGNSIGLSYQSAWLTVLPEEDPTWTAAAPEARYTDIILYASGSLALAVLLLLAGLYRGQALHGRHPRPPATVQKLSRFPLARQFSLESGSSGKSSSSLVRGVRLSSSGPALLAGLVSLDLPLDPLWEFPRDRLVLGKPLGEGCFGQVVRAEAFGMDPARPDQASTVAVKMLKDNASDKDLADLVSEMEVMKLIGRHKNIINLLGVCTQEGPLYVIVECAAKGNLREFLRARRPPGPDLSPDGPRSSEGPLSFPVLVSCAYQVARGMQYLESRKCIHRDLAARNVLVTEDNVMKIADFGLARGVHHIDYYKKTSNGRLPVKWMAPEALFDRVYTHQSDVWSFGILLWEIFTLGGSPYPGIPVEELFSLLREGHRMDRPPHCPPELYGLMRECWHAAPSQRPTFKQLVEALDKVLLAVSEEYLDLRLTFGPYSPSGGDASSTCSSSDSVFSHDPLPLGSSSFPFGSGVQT
Dual specificity mitogen-activated protein kinase kinase 1, sequence (Q02750 whole entry, the tested form may be a part): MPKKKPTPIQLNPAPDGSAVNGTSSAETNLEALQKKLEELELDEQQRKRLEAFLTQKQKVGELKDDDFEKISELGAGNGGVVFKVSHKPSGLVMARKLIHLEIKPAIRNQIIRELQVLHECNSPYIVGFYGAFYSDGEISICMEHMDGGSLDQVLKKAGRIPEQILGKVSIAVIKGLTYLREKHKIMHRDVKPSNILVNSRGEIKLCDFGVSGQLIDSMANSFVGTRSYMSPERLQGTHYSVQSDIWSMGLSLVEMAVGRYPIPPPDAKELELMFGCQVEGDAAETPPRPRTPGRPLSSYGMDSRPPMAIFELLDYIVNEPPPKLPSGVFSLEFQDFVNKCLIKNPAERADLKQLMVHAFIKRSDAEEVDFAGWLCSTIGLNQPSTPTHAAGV
BDNF/NT-3 growth factors receptor, sequence (Q16620 whole entry, the tested form may be a part): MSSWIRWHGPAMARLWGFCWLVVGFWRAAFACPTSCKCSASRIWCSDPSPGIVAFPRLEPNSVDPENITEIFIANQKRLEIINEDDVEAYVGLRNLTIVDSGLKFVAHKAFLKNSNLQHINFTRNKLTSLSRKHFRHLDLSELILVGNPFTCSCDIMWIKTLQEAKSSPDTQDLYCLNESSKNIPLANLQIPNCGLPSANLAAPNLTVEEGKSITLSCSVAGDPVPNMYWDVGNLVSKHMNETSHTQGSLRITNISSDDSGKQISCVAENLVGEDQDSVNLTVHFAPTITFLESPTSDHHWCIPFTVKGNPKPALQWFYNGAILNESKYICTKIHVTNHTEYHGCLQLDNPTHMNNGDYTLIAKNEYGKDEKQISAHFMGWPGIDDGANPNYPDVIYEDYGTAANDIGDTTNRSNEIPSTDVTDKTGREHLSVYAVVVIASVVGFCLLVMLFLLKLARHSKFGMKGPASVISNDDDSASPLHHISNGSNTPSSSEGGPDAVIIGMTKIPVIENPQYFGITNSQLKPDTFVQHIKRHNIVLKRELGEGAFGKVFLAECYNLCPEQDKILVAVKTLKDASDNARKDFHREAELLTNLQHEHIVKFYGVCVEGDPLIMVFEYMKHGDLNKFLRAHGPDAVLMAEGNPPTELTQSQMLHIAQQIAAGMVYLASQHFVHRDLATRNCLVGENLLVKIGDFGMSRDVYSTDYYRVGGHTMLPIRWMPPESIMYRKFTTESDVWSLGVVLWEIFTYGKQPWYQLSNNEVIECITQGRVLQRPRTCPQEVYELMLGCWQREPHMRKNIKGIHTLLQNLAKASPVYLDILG
Epidermal growth factor receptor, sequence (P00533 whole entry, the tested form may be a part): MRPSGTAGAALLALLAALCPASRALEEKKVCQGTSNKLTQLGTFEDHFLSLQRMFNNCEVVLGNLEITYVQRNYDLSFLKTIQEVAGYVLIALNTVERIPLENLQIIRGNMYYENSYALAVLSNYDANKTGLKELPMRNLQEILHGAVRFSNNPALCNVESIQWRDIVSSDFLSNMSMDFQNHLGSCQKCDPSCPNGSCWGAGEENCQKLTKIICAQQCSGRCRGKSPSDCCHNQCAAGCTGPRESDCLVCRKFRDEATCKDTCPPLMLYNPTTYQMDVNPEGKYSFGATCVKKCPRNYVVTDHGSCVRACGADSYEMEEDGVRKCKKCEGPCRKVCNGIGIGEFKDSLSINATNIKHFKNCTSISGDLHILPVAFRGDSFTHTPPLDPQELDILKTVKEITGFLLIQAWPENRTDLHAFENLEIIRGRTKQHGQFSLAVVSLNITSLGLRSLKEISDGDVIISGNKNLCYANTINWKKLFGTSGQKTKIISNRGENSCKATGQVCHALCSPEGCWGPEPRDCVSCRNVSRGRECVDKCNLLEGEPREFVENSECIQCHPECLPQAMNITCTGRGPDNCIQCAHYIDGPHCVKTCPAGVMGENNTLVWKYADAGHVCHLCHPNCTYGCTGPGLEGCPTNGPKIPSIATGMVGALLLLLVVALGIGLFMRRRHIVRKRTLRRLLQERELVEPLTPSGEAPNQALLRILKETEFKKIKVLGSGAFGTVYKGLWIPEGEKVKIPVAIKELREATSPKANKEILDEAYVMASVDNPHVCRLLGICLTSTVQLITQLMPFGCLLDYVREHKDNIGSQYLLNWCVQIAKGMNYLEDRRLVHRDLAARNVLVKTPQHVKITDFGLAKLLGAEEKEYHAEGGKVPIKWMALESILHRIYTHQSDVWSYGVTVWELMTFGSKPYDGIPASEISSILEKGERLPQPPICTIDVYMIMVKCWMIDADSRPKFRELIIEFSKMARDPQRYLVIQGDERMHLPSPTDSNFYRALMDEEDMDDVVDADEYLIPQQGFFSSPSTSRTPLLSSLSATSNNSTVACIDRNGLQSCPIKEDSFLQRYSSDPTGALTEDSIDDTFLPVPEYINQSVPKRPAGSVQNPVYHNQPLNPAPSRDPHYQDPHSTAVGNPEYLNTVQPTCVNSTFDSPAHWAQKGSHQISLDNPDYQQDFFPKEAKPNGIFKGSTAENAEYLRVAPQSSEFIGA

- IC50 [6]: 6.3 µM
- IC50 [7]: 10 µM
- IC50 [8]: > 100 µM
- IC50 (Focal adhesion kinase 1): > 100 µM
- IC50 [9]: 11 µM
- IC50 [10]: 11 µM
- IC50 (HeLa [11]): 0.33 µM
- IC50 [12]: > 100 µM
SMILES: CN(CCc1ccc(-c2ccccc2)cc1)Cc1cn(C)c2ccc(C(=O)Nc3ccc(F)cc3)cc12
- Activity (IEC-6 [1]): Toxic
- Activity (IEC-6 [2]): Toxic
- Activity (HeLa [3]): Active
- Activity (HeLa [4]): Active
- Activity (IEC-6 [5]): Toxic
